Results published in patent US20190175491A1, “TOPICAL COMPOSITIONS OF APREMILAST” (TORRENT PHARMACEUTICALS LIMITED, priority 2016, published 2019).

Tests used:
Solubility of apremilast = assay type: physicochemical
Source text: Apremilast is insoluble in water. Even in polar solvent phase, only 0.066% of apremilast was found soluble. Therefore, it is challenging to formulate a topical composition of apremilast having an amount, which provides effective concentration of apremilast at the site of action.

[1] = cited from earlier work
[2] = oral Apremilast; cited from earlier work

SMILES: CCOc1cc([C@@H](CS(C)(=O)=O)N2C(=O)c3cccc(NC(C)=O)c3C2=O)ccc1OC [Apremilast, N-{2-[(1S)-1-(3-Ethoxy-4-methoxyphenyl)-2-(methylsulfonyl)ethyl]-1,3-dioxo-2,3-dihydro-1H-isoindol-4-yl} acetamide]
- apremilast found soluble in polar solvent phase (Solubility of apremilast): 0.066%
- solubility in water [1]: insoluble
- most commonly reported adverse reactions [2]: Diarrhea, nausea and headache
